From ChEMBL document CHEMBL5465560, “Selectivity Literature for EUbOPEN Chemogenomic Library” (2024)

Key:
[1] = target: Cyclin-dependent kinase 5 (Homo sapiens, UniProt Q00535); test: Selectivity interaction (Kinase panel (KiNativ target engagement assay in Jurkat cells)) EUB0001635a CDK5; format: cell-based; settings: at 1 µM
[2] = target: Serine/threonine-protein kinase Chk2 (Homo sapiens) (UniProt O96017); test: Selectivity interaction (KinomeScan (DiscoverX)) EUB0000229b CHEK2; settings: at 10 µM
[3] = target: T1, Mitogen-activated protein kinase kinase kinase 13 (Homo sapiens) (UniProt O43283); test: Selectivity interaction (KinomeScan (DiscoverX)) EUB0000595a MAP3K13; settings: at 10 µM
T1 sequence (whole entry): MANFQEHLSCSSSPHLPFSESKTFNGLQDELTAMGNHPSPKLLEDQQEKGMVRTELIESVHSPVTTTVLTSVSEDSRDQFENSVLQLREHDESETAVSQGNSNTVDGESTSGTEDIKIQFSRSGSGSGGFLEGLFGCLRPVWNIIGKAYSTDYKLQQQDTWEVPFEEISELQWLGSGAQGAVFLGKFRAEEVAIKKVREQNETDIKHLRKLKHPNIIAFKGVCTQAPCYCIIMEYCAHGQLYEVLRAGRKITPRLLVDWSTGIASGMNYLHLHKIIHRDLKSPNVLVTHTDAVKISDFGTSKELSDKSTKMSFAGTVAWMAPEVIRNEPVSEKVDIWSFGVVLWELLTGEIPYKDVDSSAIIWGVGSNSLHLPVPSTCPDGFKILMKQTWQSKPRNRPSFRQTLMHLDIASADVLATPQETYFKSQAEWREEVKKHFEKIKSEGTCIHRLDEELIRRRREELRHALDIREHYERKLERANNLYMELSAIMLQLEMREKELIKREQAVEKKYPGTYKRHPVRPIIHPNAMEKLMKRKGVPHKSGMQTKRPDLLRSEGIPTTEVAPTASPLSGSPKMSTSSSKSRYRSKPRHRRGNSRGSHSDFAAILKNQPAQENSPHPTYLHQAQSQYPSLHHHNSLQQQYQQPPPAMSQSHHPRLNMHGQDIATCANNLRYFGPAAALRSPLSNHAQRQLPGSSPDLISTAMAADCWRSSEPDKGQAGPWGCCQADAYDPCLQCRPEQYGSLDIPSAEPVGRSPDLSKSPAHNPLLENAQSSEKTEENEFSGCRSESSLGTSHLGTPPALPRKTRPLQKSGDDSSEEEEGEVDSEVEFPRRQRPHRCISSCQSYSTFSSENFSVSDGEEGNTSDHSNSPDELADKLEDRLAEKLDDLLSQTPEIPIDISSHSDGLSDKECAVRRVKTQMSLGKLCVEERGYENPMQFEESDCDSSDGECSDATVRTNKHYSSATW

[4] = target: Protein arginine N-methyltransferase 3 (Homo sapiens, UniProt O60678); test: Selectivity interaction (Transferase panel (protein, RNA, and DNA methyltransferases. and EP300 (acetyltransferase))) EUB0000270b PRMT3
[5] = target: T2, Ephrin type-B receptor 2 (Homo sapiens) (UniProt P29323); settings: at 10 µM
T2 sequence (whole entry): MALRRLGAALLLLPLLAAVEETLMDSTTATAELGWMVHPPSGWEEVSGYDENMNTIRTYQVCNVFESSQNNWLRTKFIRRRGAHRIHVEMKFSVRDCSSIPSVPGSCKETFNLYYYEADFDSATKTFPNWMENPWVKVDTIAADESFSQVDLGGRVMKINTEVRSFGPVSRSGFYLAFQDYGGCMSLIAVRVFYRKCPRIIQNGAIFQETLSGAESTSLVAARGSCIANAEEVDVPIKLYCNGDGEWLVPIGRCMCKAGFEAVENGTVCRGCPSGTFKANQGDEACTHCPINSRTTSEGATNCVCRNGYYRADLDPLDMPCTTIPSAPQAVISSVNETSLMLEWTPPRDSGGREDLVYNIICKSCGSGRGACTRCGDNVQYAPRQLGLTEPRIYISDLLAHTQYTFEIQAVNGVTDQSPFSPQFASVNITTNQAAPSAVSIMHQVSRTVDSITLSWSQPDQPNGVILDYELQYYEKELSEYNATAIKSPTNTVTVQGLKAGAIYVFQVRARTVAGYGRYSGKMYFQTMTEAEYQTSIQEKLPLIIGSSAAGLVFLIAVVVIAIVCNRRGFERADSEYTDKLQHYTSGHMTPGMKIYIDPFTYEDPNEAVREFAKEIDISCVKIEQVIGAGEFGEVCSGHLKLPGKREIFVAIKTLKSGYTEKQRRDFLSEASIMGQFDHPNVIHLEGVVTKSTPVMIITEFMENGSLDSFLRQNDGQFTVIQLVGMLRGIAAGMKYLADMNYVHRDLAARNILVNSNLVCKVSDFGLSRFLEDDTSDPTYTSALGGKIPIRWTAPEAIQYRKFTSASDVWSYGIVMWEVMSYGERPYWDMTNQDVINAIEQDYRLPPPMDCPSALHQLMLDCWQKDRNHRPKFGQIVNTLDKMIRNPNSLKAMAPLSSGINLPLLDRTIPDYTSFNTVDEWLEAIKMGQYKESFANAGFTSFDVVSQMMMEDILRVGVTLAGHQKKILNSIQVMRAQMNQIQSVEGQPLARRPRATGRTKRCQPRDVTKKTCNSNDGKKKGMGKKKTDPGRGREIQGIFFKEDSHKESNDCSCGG

[6] = target: Serine/threonine-protein kinase 25 (Homo sapiens) (UniProt O00506); settings: at 10 µM
[7] = target: CDK4/Cyclin D3 (Homo sapiens) (UniProt P11802+P30281); test: Selectivity interaction (KinomeScan (DiscoverX)) EUB0001619a CDK4; format: protein-complex assay; settings: at 1 µM
[8] = target: BMP-2-inducible protein kinase (Homo sapiens) (UniProt Q9NSY1); test: Selectivity interaction (KinomeScan (DiscoverX)) EUB0000655a BMP2K; settings: at 10 µM
[9] = target: T3, Mitogen-activated protein kinase 13 (Homo sapiens) (UniProt O15264); test: Selectivity interaction (Ambit KINOMEscan and KiNATiv profiling in Jurkat cells) EUB0000090b MAPK13; format: cell-based; settings: at 1 µM
T3 sequence (whole entry): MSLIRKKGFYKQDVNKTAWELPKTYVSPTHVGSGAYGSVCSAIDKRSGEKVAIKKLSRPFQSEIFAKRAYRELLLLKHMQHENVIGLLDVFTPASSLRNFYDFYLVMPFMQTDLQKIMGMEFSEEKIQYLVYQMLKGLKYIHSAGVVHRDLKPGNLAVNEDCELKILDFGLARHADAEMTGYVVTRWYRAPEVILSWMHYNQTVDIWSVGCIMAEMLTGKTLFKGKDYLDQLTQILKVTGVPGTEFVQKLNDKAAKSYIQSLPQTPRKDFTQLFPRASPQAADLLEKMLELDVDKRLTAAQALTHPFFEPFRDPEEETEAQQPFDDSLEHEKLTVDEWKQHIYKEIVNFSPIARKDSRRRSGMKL

Sequence of Protein arginine N-methyltransferase 3 (O60678 2-531 limits assumed): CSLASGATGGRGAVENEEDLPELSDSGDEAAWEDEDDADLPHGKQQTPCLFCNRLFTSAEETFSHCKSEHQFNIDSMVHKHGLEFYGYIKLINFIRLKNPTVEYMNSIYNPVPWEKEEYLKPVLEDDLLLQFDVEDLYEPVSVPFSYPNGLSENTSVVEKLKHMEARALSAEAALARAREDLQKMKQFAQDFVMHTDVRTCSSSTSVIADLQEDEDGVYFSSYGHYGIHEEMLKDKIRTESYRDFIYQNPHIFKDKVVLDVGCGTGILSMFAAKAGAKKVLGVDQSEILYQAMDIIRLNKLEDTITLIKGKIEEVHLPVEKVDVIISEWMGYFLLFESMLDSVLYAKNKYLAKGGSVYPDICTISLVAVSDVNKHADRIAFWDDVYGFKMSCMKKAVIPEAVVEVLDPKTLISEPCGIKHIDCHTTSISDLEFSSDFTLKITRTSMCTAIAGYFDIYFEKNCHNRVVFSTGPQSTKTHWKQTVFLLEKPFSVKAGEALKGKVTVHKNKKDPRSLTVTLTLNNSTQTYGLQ
Sequence of Cyclin-dependent kinase 5 (Q00535 whole entry, looked up): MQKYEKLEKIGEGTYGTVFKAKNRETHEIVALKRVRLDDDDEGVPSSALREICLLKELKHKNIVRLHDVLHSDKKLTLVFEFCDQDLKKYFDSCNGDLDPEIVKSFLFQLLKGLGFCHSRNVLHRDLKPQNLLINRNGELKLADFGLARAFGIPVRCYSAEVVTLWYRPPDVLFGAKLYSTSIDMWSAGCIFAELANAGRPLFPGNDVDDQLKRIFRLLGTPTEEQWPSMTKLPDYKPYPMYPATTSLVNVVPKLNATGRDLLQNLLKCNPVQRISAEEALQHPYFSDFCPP
Sequence of Serine/threonine-protein kinase 25 (Homo sapiens) (O00506 whole entry, looked up): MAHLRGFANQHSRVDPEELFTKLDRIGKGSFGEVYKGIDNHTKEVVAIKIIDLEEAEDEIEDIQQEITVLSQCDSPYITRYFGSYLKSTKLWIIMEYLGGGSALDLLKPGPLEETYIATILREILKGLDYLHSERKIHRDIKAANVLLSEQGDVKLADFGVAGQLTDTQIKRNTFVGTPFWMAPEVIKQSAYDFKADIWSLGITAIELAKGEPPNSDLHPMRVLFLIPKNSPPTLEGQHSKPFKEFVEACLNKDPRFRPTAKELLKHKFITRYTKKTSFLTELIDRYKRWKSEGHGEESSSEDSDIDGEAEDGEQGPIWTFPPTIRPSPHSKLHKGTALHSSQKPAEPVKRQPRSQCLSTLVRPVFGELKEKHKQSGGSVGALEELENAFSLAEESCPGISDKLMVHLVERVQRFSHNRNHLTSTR
Sequence of Serine/threonine-protein kinase Chk2 (Homo sapiens) (O96017 whole entry): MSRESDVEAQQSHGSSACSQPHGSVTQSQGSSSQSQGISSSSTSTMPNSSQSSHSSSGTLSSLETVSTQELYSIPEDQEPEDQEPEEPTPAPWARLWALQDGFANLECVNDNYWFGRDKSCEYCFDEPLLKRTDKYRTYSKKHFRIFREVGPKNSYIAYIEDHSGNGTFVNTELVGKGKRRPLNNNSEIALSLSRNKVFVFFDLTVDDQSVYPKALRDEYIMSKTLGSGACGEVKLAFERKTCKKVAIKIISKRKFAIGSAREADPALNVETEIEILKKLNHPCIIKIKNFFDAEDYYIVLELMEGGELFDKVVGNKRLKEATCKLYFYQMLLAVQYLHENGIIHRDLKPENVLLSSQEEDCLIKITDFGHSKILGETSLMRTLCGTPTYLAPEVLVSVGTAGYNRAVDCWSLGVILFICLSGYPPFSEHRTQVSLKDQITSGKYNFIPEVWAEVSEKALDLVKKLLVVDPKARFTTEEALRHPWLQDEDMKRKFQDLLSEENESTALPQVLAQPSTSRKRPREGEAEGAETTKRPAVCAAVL
Sequence of BMP-2-inducible protein kinase (Homo sapiens) (Q9NSY1 whole entry, looked up): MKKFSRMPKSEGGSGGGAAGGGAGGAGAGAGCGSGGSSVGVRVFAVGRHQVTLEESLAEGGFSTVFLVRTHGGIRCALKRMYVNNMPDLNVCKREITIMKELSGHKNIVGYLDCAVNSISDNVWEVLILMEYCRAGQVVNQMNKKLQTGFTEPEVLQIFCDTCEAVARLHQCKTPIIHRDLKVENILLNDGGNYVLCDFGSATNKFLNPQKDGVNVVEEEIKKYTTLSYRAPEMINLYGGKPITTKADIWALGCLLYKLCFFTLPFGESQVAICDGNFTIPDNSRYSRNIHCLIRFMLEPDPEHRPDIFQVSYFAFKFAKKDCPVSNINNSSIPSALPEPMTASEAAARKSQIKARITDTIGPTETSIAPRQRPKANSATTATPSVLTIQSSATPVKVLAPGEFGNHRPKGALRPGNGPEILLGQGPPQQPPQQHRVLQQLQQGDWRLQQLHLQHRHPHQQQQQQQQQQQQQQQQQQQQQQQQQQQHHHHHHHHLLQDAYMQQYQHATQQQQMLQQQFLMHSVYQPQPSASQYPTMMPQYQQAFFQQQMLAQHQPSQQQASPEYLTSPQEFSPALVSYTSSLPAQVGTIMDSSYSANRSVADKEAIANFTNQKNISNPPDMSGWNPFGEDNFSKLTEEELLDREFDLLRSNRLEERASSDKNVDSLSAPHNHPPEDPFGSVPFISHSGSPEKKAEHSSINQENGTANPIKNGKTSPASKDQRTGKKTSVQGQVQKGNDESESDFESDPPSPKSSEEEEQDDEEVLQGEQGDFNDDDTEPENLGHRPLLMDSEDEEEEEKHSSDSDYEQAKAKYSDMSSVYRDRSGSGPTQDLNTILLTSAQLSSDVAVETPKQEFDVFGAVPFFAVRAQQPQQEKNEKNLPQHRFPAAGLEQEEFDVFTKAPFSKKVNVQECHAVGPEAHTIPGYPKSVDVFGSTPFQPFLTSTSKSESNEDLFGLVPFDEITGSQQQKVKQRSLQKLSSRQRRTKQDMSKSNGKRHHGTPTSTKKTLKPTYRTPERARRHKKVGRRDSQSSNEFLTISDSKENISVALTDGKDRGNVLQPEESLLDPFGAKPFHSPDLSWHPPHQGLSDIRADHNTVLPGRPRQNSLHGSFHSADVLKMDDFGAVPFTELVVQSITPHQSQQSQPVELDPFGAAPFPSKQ

Q: Which % of engagement ([1]; Selectivity number of off-targets 0.0, Selectivity number of targets 233.0, Source Knowledge https://www.sciencedirect.com/science/article/pii/S2451945619300674?via%3Dihub) does the source give for `C=CC(=O)Nc1ccc(C(=O)Nc2[nH]nc3c2CN(C(=O)N[C@H](CN(C)C)c2ccccc2)C3(C)C)cc1` here?
A: The % of engagement was -1.7%.

Q: And the % of engagement [1]?
A: The % of engagement was 0.4%.

Q: How did the % binding [2] turn out when `COc1cc(N(C)c2ccnc3ccc(C(F)(F)F)cc23)cc(OC)c1OC` was run?
A: The % binding was 74%.

Q: With `COCC(=O)NC/C=C/c1ccc2ncnc(Nc3ccc(Oc4ccc(C)nc4)c(C)c3)c2c1` [CP-724714] as the compound, how does the % of control [3] read?
A: The % of control was 80%.

Q: Which results are given for `Cc1cc(CN)cc(C)c1-c1ncn(C)c1-c1cncn1C`?
A: % activity ([4]; at 1 µM): > 90%; % activity ([4]; at 10 µM): > 80%

Q: `Cc1cc([C@@H](C)Nc2ccccc2C(=O)O)c2nc(N3CCOCC3)cc(=O)n2c1` [AZD-6482] was tested. Which % of control [5] did it give?
A: The % of control was 100%.

Q: And the % of control [6]?
A: Its % of control is 76%.

Q: For `N#Cc1cccc(-c2c[nH]c3ncnc(N4CCOCC4)c23)c1`, which % of control [7] is on record?
A: The % of control was 100%.

Q: With `CN(C)CCOc1ccc(-c2nc(-c3ccncc3)c(-c3ccc4c(c3)CC/C4=N\O)[nH]2)cc1` as the compound, how does the % of control [8] read?
A: The % of control was 82%.

Q: How did the % of control [9] turn out when `CN(C)C/C=C/C(=O)Nc1ccc(C(=O)N2CCCC(Nc3ncc(Cl)c(-c4c[nH]c5ccccc45)n3)C2)cc1` (stereo unspecified) was run?
A: The % of control was 85%.
